Measurements taken from US7329652B2, “Diaminotriazole compounds useful as protein kinase inhibitors” (Vertex Pharamaceuticals Incorporated, priority 2004, dated 2008).
Like-named read-outs stand apart in the source and are kept apart here.

Assays:
JAK3 = target: T1, JAK3 (Homo sapiens, UniProt P52333); assay: JAK3 inhibition assay (radiometric 33P filter assay); assay type: biochemical
T1 sequence (P52333 1-1124): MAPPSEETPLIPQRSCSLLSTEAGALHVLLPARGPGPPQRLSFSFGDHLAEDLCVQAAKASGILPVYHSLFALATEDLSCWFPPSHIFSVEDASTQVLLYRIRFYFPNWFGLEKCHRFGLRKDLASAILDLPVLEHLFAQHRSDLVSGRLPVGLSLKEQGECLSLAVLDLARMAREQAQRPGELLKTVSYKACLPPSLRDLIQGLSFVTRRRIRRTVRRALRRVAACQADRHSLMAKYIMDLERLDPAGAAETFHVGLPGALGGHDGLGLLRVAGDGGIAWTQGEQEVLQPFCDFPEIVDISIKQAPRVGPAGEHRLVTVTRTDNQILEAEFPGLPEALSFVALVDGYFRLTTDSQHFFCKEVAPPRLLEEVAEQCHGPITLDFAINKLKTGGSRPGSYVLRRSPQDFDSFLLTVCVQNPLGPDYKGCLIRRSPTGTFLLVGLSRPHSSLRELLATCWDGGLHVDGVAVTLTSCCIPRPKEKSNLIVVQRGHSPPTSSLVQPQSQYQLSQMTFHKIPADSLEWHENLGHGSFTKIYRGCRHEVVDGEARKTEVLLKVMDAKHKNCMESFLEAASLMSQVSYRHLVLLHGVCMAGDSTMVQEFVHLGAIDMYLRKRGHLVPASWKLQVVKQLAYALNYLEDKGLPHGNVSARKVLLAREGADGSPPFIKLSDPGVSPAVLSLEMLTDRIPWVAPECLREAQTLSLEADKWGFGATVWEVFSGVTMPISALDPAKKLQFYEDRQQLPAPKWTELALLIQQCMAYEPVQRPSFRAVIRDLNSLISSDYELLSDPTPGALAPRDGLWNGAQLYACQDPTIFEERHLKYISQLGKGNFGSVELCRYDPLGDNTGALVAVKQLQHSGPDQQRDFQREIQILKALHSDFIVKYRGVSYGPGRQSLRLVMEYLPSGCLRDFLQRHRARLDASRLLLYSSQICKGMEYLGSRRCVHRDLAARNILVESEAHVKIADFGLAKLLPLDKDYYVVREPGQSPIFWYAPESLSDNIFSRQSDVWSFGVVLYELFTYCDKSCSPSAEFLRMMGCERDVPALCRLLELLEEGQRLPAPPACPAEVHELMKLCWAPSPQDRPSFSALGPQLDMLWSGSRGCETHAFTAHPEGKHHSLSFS
Outline: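 Final conditions were 1 nM JAK3, 5 μM ATP (200 uCi/μmole) and 1 μM poly(Glu)4Tyr in 100 mM HEPES pH 7.4, 10 mM MgCl2, 25 mM NaCl, 1 mM DTT and 0.01% BSA. After 20 min at 25 °C the reaction was stopped with TCA. 33P incorporation was counted after glass-fibre filtration.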

JAK-2 enzyme = JAK-2 enzyme (Homo sapiens, UniProt O60674); assay: JAK2 inhibition assay (radiometric 33P filter assay); assay type: biochemical
Outline: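 JAK-2 enzyme in 100 mM HEPES pH 7.4, 1 mM DTT, 10 mM MgCl2, 25 mM NaCl, 0.01% BSA, with final 12 μM [33P]ATP and 15 μM poly(Glu)4Tyr. Reactions ran 20 min at 25 °C and were stopped with TCA. 33P incorporation was counted after glass-fibre filtration.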

[1] = 1 μM poly(Glu)4Tyr, 5 μM ATP, 1 nM JAK3, 25° C., read-out: JAK3 inhibition data (Ki)
[2] = 15 μM poly(Glu)4Tyr, 12 μM ATP, read-out: JAK2 inhibition data (Ki)

Sequence of JAK-2 enzyme (O60674 whole entry, species assumed): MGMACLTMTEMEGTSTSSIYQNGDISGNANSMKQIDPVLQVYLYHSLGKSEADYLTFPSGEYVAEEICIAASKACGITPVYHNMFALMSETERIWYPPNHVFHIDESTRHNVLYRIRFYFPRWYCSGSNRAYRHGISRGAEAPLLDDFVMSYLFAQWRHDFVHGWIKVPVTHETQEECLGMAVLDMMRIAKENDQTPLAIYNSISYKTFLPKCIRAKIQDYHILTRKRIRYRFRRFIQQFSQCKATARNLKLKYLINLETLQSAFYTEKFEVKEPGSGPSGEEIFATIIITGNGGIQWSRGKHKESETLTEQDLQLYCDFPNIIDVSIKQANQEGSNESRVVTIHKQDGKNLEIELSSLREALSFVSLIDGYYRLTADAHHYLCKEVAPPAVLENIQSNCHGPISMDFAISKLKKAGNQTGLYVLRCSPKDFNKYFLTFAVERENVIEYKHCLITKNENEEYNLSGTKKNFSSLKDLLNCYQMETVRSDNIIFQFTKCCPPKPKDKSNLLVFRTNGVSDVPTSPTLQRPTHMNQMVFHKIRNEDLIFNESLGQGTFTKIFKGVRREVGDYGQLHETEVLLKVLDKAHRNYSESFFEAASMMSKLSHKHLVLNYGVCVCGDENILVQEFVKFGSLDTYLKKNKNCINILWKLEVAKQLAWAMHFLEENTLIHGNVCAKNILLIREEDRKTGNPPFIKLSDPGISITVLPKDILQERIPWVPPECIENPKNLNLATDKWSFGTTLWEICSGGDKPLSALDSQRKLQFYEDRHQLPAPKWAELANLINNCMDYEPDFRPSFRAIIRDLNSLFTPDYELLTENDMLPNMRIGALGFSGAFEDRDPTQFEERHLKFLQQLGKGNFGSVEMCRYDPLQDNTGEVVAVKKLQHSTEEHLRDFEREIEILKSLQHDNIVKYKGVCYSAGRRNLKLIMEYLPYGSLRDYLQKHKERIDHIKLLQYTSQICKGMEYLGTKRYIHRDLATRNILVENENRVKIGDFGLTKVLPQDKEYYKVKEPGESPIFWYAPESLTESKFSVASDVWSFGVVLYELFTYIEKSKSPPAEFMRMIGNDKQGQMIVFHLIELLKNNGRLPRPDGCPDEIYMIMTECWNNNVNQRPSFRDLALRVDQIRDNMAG

| Structure (SMILES) | Ki (JAK3; [1]) | Ki (JAK-2 enzyme; [2]) | Ki (JAK3) | Ki (JAK-2 enzyme) |
| --- | --- | --- | --- | --- |
| CCCOC(=O)Nc1ccc(Nc2nc(N)n(-c3cc(N4C[C@@H](C)N(C(C)=O)[C@@H](C)C4)ncn3)n2)cc1 [Compound 77] | < 50 nM | < 50 nM | – | – |
| CCCOC(=O)Nc1ccc(Nc2nc(N)n(-c3ccnc(N4CCCN(C(C)=O)CC4)c3)n2)cc1 [Compound 172] | < 50 nM | 50 to 500 nM | – | – |
| CCOC(=O)CCNC(=O)N1CCN(c2ccc(Nc3nc(N)n(-c4cc(N5C[C@@H](C)N(C(C)=O)[C@@H](C)C5)ncn4)n3)cc2)CC1 [Compound 65] | < 50 nM | < 50 nM | – | – |
| CCCOC(=O)N1CCN(c2ccc(Nc3nc(N)n(-c4ccnc(N5CCCN(C(=O)OC(C)C)CC5)c4)n3)cc2)CC1 [Compound 161] | 50 to 500 nM | 50 to 500 nM | – | – |
| CC(=O)N1CCCN(c2cc(-n3nc(Nc4ccc(N5CCOCC5)cc4)nc3N)ncn2)CC1 [Compound 2] | < 50 nM | < 50 nM | – | – |
| CC(=O)N1[C@H](C)CN(c2cc(-n3nc(Nc4ccc(N5CCN(C(=O)OCC(C)(C)C)CC5)cc4)nc3N)ccn2)C[C@@H]1C [Compound 142] | < 50 nM | < 50 nM | – | – |
| CCCOC(=O)N(C)c1ccc(Nc2nc(N)n(-c3cc(N4C[C@@H](C)N(C(C)=O)[C@@H](C)C4)ncn3)n2)cc1 [Compound 118] | < 50 nM | < 50 nM | – | – |
| CC(=O)N1[C@H](C)CN(c2cc(-n3nc(Nc4ccc(NC(=O)OC(C)(C)C)cc4)nc3N)ncn2)C[C@@H]1C [Compound 84] | < 50 nM | < 50 nM | – | – |
| COc1ccc(OC(=O)N(C)c2ccc(Nc3nc(N)n(-c4cc(N5CCCN(C(C)=O)CC5)ncn4)n3)cc2)cc1 [Compound 135] | – | – | < 50 nM | < 50 nM |
| CC(=O)Nc1ccc(Nc2nc(N)n(-c3cc(N4CCCN(C(C)=O)CC4)ncn3)n2)cc1 [Compound 11] | < 50 nM | < 50 nM | – | – |
| CC(=O)N1[C@H](C)CN(c2cc(-n3nc(Nc4ccc(N(C)C(=O)OC(C)C)cc4)nc3N)ncn2)C[C@@H]1C [Compound 119] | < 50 nM | < 50 nM | – | – |
| CCCNC(=O)Nc1ccc(Nc2nc(N)n(-c3cc(N4C[C@@H](C)N(C(C)=O)[C@@H](C)C4)ncn3)n2)cc1 [Compound 68] | < 50 nM | < 50 nM | – | – |
| CNc1ccc(Nc2nc(N)n(-c3cc(N4CCCN(C(C)=O)CC4)ncn3)n2)cc1 [Compound 117] | < 50 nM | < 50 nM | – | – |
| CC(=O)N1CCCN(c2cc(-n3nc(Nc4ccc(N5CCN(C(=O)OCC(C)C)CC5)cc4)nc3N)ncn2)CC1 [Compound 50] | < 50 nM | < 50 nM | – | – |
| CCCOC(=O)N1CCN(c2ccc(Nc3nc(N)n(-c4cc(N5C[C@@H](C)N(C(C)=O)[C@@H](C)C5)ncn4)n3)cc2)CC1 [Compound 55] | < 50 nM | < 50 nM | – | – |
| CCCC(=O)N1CCN(c2ccc(Nc3nc(N)n(-c4cc(N5CCCN(C(C)=O)CC5)ncn4)n3)cc2)CC1 [Compound 37] | < 50 nM | < 50 nM | – | – |
| Nc1nc(Nc2ccc(N3CCOCC3)cc2)nn1-c1ccnc(N2CCCCCC2)c1 [Compound 19] | < 50 nM | < 50 nM | – | – |
| CC(=O)N1CCCN(c2cc(-n3nc(Nc4ccc(NC(=O)NC5CCCCC5)cc4)nc3N)ncn2)CC1 [Compound 88] | < 50 nM | < 50 nM | – | – |
| CC(=O)N1[C@H](C)CN(c2cc(-n3nc(Nc4ccc(NC(=O)Nc5ccc(C(F)(F)F)cc5)cc4)nc3N)ncn2)C[C@@H]1C [Compound 74] | < 50 nM | < 50 nM | – | – |
| CC(=O)N1CCCN(c2cc(-n3nc(Nc4ccc(NC(=O)C5CCOCC5)cc4)nc3N)ncn2)CC1 [Compound 26] | < 50 nM | < 50 nM | – | – |
| CCOC(=O)N1CCCN(c2cc(-n3nc(Nc4ccc(N5CCN(S(=O)(=O)CC)CC5)cc4)nc3N)ccn2)CC1 [Compound 153] | 50 to 500 nM | 50 to 500 nM | – | – |
| CC(=O)N1[C@H](C)CN(c2cc(-n3nc(Nc4ccc(NC(=O)OCC(C)C)cc4)nc3N)ccn2)C[C@@H]1C [Compound 100] | < 50 nM | < 50 nM | – | – |

| Structure (SMILES) | Ki (JAK3; [1]) | Ki (JAK-2 enzyme; [2]) | Ki (JAK3) | Ki (JAK-2 enzyme) |
| --- | --- | --- | --- | --- |
| CC(=O)N1[C@H](C)CN(c2cc(-n3nc(Nc4ccc(N5CCN(C(=O)NC(C)(C)C)CC5)cc4)nc3N)ncn2)C[C@@H]1C [Compound 63] | < 50 nM | < 50 nM | – | – |
| CCCOC(=O)N1CCN(c2ccc(Nc3nc(N)n(-c4ccnc(N5CCCN(C(=O)CC#N)CC5)c4)n3)cc2)CC1 [Compound 140] | < 50 nM | < 50 nM | – | – |
| CCOC(=O)N1CCCN(c2cc(-n3nc(Nc4ccc(N5CCN(C(=O)OC(C)C)CC5)cc4)nc3N)ccn2)CC1 [Compound 157] | 50 to 500 nM | 50 to 500 nM | – | – |
| CCCOC(=O)Nc1ccc(Nc2nc(N)n(-c3cc(N4CCCN(C(C)=O)CC4)ncn3)n2)cc1 [Compound 92] | < 50 nM | < 50 nM | – | – |
| CCCOC(=O)N1CCCN(c2cc(-n3nc(Nc4ccc(N5CCN(S(=O)(=O)CC)CC5)cc4)nc3N)ccn2)CC1 [Compound 154] | 50 to 500 nM | 50 to 500 nM | – | – |
| CC(=O)N1CCCN(c2cc(-n3nc(Nc4ccc(NC(=O)c5ccncc5)cc4)nc3N)ncn2)CC1 [Compound 28] | < 50 nM | < 50 nM | – | – |
| CC(=O)N1[C@H](C)CN(c2cc(-n3nc(Nc4ccc(NC(=O)OCC(C)(C)C)cc4)nc3N)ncn2)C[C@@H]1C [Compound 80] | < 50 nM | < 50 nM | – | – |
| CC(=O)N1[C@H](C)CN(c2cc(-n3nc(Nc4ccc(N(C)C(=O)OCC(C)C)cc4)nc3N)ncn2)C[C@@H]1C [Compound 120] | < 50 nM | < 50 nM | – | – |
| CNc1ccc(Nc2nc(N)n(-c3cc(N4C[C@@H](C)N(C(C)=O)[C@@H](C)C4)ncn3)n2)cc1 [Compound 116] | < 50 nM | < 50 nM | – | – |
| CCOC(=O)CCNC(=O)Nc1ccc(Nc2nc(N)n(-c3cc(N4C[C@@H](C)N(C(C)=O)[C@@H](C)C4)ncn3)n2)cc1 [Compound 72] | < 50 nM | < 50 nM | – | – |
| CC(=O)N1CCCN(c2cc(-n3nc(Nc4ccc(N5CCN(C(=O)CC(C)C)CC5)cc4)nc3N)ncn2)CC1 [Compound 38] | < 50 nM | < 50 nM | – | – |
| CCN(CC)c1ccc(Nc2nc(N)n(-c3cc(N4CCCN(C(C)=O)CC4)ncn3)n2)cc1 [Compound 12] | < 50 nM | < 50 nM | – | – |
| CC(=O)N1CCCN(c2cc(-n3nc(Nc4ccc(NC(=O)OCC(C)(C)C)cc4)nc3N)ccn2)CC1 [Compound 176] | 50 to 500 nM | 50 to 500 nM | – | – |
| CC(=O)N1CCCN(c2cc(-n3nc(Nc4ccc(N5CCN(C(=O)C6CCOCC6)CC5)cc4)nc3N)ncn2)CC1 [Compound 41] | < 50 nM | < 50 nM | – | – |
| CCCOC(=O)N1CCCN(c2cc(-n3nc(Nc4ccc(N5CCN(C(=O)OCC)CC5)cc4)nc3N)ccn2)CC1 [Compound 150] | 50 to 500 nM | 50 to 500 nM | – | – |
| CCCOC(=O)N1CCN(c2ccc(Nc3nc(N)n(-c4ccnc(N5CCCN(S(=O)(=O)CC)CC5)c4)n3)cc2)CC1 [Compound 163] | 50 to 500 nM | 50 to 500 nM | – | – |
| COC(=O)N(C)c1ccc(Nc2nc(N)n(-c3cc(N4CCCN(C(C)=O)CC4)ncn3)n2)cc1 [Compound 126] | < 50 nM | < 50 nM | – | – |
| CCOC(=O)N1CCN(c2ccc(Nc3nc(N)n(-c4ccnc(N5CCCN(C(=O)OCC)CC5)c4)n3)cc2)CC1 [Compound 149] | 50 to 500 nM | 50 to 500 nM | – | – |
| CCOC(=O)N1CCN(c2ccc(Nc3nc(N)n(-c4cc(N5CCCN(S(C)(=O)=O)CC5)ncn4)n3)cc2)CC1 [Compound 144] | 50 to 500 nM | 50 to 500 nM | – | – |
| CC(=O)N1CCCN(c2cc(-n3nc(Nc4ccc(NC(=O)OCC(C)C)cc4)nc3N)ncn2)CC1 [Compound 94] | < 50 nM | < 50 nM | – | – |
| CC(=O)N1CCCN(c2cc(-n3nc(Nc4ccc(N5CCOCC5)cc4)nc3N)ccn2)CC1 [Compound 1] | < 50 nM | 50 to 500 nM | – | – |
| CC(=O)N1[C@H](C)CN(c2cc(-n3nc(Nc4ccc(N5CCOCC5)cc4)nc3N)ccn2)C[C@@H]1C [Compound 17] | < 50 nM | < 50 nM | – | – |
